# According to the supplement of paper PMC10307832:
# Legend:
# Assay in all cases: relative viability (nuclei count vs DMSO), 5 days (fraction); higher = more cells survive
# [1] = compound: O=C(CCCCCCNC(=O)c1cnc(N(c2ccccc2)c2ccccc2)nc1)NO [Ricolinostat] + C[C@]1(O)C[C@@H](c2nc(-c3ccc4ccc(-c5ccccc5)nc4c3)c3c(N)nccn32)C1 [Linsitinib] (partner 1 µM)
# Method in brief: (§1)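 Lung cancer cell lines were pin-tool dosed in 1536-well plates on the day after seeding, with either a lone drug or a fixed anchor-drug dose plus five library-drug doses (not always all listed) in √10 steps. Nuclei were counted on 4× images after 5 days. Relative viability is the ratio of treated-well to vehicle-well nuclei counts, with each value a median of duplicate plates.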
# Ricolinostat + Alpelisib = compound: O=C(CCCCCCNC(=O)c1cnc(N(c2ccccc2)c2ccccc2)nc1)NO [Ricolinostat] + Cc1nc(NC(=O)N2CCC[C@H]2C(N)=O)sc1-c1ccnc(C(C)(C)C(F)(F)F)c1 [Alpelisib] (partner 2 µM)
# Method in brief: as §1
# TGX 221 + Crizotinib = compound: CC1=CN2C(=O)C=C(N=C2C(=C1)C(C)NC3=CC=CC=C3)N4CCOCC4 [TGX 221] + C[C@@H](Oc1cc(-c2cnn(C3CCNCC3)c2)cnc1N)c1c(Cl)ccc(F)c1Cl [Crizotinib] (partner 1 µM)
# Method in brief: as §1
# [2] = compound: O=C(CCCCCCNC(=O)c1cnc(N(c2ccccc2)c2ccccc2)nc1)NO [Ricolinostat] + CC(=O)Nc1cccc(-n2c(=O)n(C3CC3)c(=O)c3c(Nc4ccc(I)cc4F)n(C)c(=O)c(C)c32)c1 [Trametinib] (partner 0.02 µM)
# Method in brief: as §1
# [3] = compound: C1=CC=C(C(=C1)C2=CC=C(C=C2)C3=CSC4=C3C(=C(C(=O)N4)C#N)O)O + CC(=O)Nc1cccc(-n2c(=O)n(C3CC3)c(=O)c3c(Nc4ccc(I)cc4F)n(C)c(=O)c(C)c32)c1 [Trametinib] (partner 0.02 µM)
# Method in brief: as §1
cell line,measurement,setting,value
NCI-H1792,relative viability,[1]; first compound 0.08 µM,0.438
same,relative viability,[1]; first compound 0.253 µM,0.545
same,relative viability,[1]; first compound 0.8 µM,0.43
same,relative viability,[1]; first compound 2.53 µM,0.428
same,relative viability,Ricolinostat + Alpelisib; first compound 0.08 µM,0.55
same,relative viability,Ricolinostat + Alpelisib; first compound 0.253 µM,0.661
same,relative viability,Ricolinostat + Alpelisib; first compound 0.8 µM,0.67
same,relative viability,Ricolinostat + Alpelisib; first compound 2.53 µM,0.59
same,relative viability,TGX 221 + Crizotinib; first compound 0.08 µM,0.883
same,relative viability,TGX 221 + Crizotinib; first compound 0.253 µM,1.08
same,relative viability,TGX 221 + Crizotinib; first compound 0.8 µM,0.944
same,relative viability,TGX 221 + Crizotinib; first compound 2.53 µM,0.948
same,relative viability,TGX 221 + Crizotinib; first compound 8 µM,0.857
same,relative viability,[2]; first compound 0.253 µM,0.486
same,relative viability,[2]; first compound 0.8 µM,0.418
same,relative viability,[2]; first compound 2.53 µM,0.468
same,relative viability,[3]; first compound 0.253 µM,0.536
same,relative viability,[3]; first compound 0.8 µM,0.424
same,relative viability,[3]; first compound 2.53 µM,0.364
same,relative viability,[3]; first compound 8 µM,0.165
